Data set [1] relates to Xanthomonas campestris pv. campestris. Description: In vivo preventive test on Xanthomonas campestris pv. campestris (black rot on cabbage). As to conditions: Example C comparative table; same conditions as described in Example B; concentration not given. The protocol:
Example B: In Vivo Preventive Test on Xanthomonas campestris pv. Campestris (Black Rot on Cabbage)
The tested compounds were prepared by homogenization in a mixture of acetone/Dimethyl sulfoxide/Tween®, and then diluted with water to obtain the desired concentration.
The young plants of cabbage were treated by spraying the compound prepared as described above. Control plants were treated only with an aqueous solution of acetone/Dimethyl sulfoxide/Tween®.
After 72 hours, the plants were contaminated by spraying the leaves with an aqueous bacteria suspension of Xanthomonas campestris pv. campestris. The contaminated cabbage plants were incubated for 8 or 10 days at 27° C. at 95% relative humidity.
The test was evaluated 8 or 10 days after the inoculation. 0% means an efficacy which corresponds to that of the control plants while an efficacy of 100% means that no disease was observed.
Compounds CMP3, CMP4, CMP5 and CMP6 were tested in an in vivo preventive test on Xanthomonas campestris pv. campestris (black rot on cabbage) in the same conditions as described in Example B.

Data set [2] can be described thus: Log P by HPLC on reversed phase columns (EEC directive 79/831 Annex V.A8). The format is physicochemical. The settings on record: for chromatographic logP: reversed phase HPLC columns. The protocol: In the above tables, measurement of Log P values was performed according to EEC directive 79/831 Annex V.A8 by HPLC (High Performance Liquid Chromatography) on reversed phase columns with the following methods: • ^[a]
If more than one Log P value is available within the same method, all the values are given and separated by “+”.
Calibration was done with straight-chain alkan2-ones (with 3 to 16 carbon atoms) with known Log P values (measurement of Log P values using retention times with linear interpolation between successive alkanones). Lambda-max-values were determined using UV-spectra from 200 nm to 400 nm and the peak values of the chromatographic signals.

The subject of data set [3] is Xanthomonas campestris pv. campestris. The data set can be described thus: Xanthomonas campestris pv. campestris in vitro cell test (bacteria growth in liquid culture). The format is cell-based. The settings on record: 20 ppm of tested compound; 24 h of incubation. The protocol: Example A: Xanthomonas Campestris pv. Campestris In Vitro Cell Test
Culture medium: LB broth medium (Luria Broth Miller) Sigma
Inoculum: bacteria suspension
Compounds to be tested were solubilized in DMSO and the solution used to prepare the required range of concentrations. The final concentration of DMSO used in the assay was ≤1%.
Inoculum was prepared from a pre-culture of bacteria grown in liquid medium and diluted to the desired optical density (OD).
Compounds were evaluated for their ability to inhibit bacteria growth in liquid culture assay. The compounds were added in the desired concentrations to culture medium containing the bacteria suspension. After 24 h of incubation, the efficacy of compounds was determined by spectrometric measurement of bacteria growth. Inhibition was determined by comparing the absorbance values in wells containing the compounds with the absorbance in control wells without compounds.

The mark [4] stands for this setting: method [a]: LC-UV, acidic range, 0.1% formic acid in water and acetonitrile as eluent.
The mark [5] stands for this setting: value given in preparation example, method variant not stated.

Take `CC(C)CC(NC(=O)c1cc(Br)c(Br)s1)C(=O)O` (stereo not shown) [CMP6, reference compound]: the “Efficacy (%)” value in data set [1] was 15%.
For `Cc1c(C(=O)NC(C)C(=O)O)sc(Br)c1Br` (stereo not shown) [I.79], the LogP in data set [2] (setting [4]) is 2.39^[a]. Moreover, the “Efficacy (%)” value in data set [1] was >70%.
In the case of `CCOC(=O)CNC(=O)c1sc(Br)c(Br)c1C` [I.02], in data set [2] (setting [4]), the LogP is 3.02^[a]. For the same compound, in data set [3], the “direct activity (inhibition of bacteria growth)” value was “no direct activity”. In addition, in data set [1], the “Efficacy (%)” value is recorded as >80%.
As for `Cc1c(C(=O)NC(CC(C)C)C(=O)O)sc(Br)c1Br` (stereo not shown) [I.90], the “Efficacy (%)” value in data set [1] was >70%.
Take `Cc1c(C(=O)NC(C(=O)OCC(C)C)C(C)C)sc(Br)c1Br` (stereo not shown) [I.14]: in data set [2] (setting [4]), the LogP was 5.22^[a]. Moreover, the “direct activity (inhibition of bacteria growth)” value in data set [3] was “no direct activity”.
As to `Cc1c(C(=O)NC(C(=O)OC(C)(C)C)C(C)C)sc(Br)c1Br` (stereo not shown) [I.61], the LogP in data set [2] (setting [4]) was 5.25^[a]. The “direct activity (inhibition of bacteria growth)” value in data set [3] was “no direct activity”.
On the same counts, the results for `C#CCOC(=O)C(NC(=O)c1sc(Br)c(Br)c1C)C(C)C` (stereo not shown) [I.13] are 4.06^[a] and “no direct activity”.
Consider `CCCOC(=O)C(NC(=O)c1sc(Br)c(Br)c1C)C(C)C` (stereo not shown) [I.54], for which the LogP in data set [2] (setting [4]) was 4.77^[a]. Further, the “direct activity (inhibition of bacteria growth)” value in data set [3] is “no direct activity”.
For `CCOC(=O)[C@H](CC(C)C)NC(=O)c1sc(Cl)c(Cl)c1C` [I.33], in that order: 4.54^[a] and “no direct activity”.
As for `Cc1c(C(=O)NC(C(=O)OC[Si](C)(C)C)C(C)C)sc(Br)c1Br` (stereo not shown) [I.20], the LogP in data set [2] (setting [4]) was 5.78^[a]. The “direct activity (inhibition of bacteria growth)” value in data set [3] was “no direct activity”.
For orientation: chromatographic logP means lipophilicity estimated from chromatographic retention. For the compound `Cc1c(C(=O)N[C@H](C(=O)O)C(C)C)sc(Br)c1Br` (racemic) [I.07, N-[(4,5-dibromo-3-methyl-2-thienyl)carbonyl]-valine], the chromatographic logP in data set [2] (setting [4]) and in data set [2] (setting [5]) was 2.92 in each case. The “direct activity (inhibition of bacteria growth)” value in data set [3] was “no direct activity”.
Regarding `COC(=O)C(NC(=O)c1sc(Cl)c(Cl)c1C)C(C)C` (stereo not shown) [I.46], the LogP in data set [2] (setting [4]) is 3.79^[a]. Also, the “direct activity (inhibition of bacteria growth)” value in data set [3] is “no direct activity”.
Regarding `CCOC(=O)C1(NC(=O)c2sc(Br)c(Br)c2C)CC1` [I.01, ethyl 1-{[(4,5-dibromo-3-methyl-2-thienyl)carbonyl]amino}cyclopropanecarboxylate], the results for the chromatographic logP in data set [2] (setting [4]) and in data set [2] (setting [5]) were 3.19 and 3.22, respectively. For the same compound, in data set [3], the “direct activity (inhibition of bacteria growth)” value is “no direct activity”.
With `CCOC(=O)C1(NC(=O)c2sc(Cl)c(Cl)c2C)CC1` [I.43], the LogP in data set [2] (setting [4]) is 3.08^[a]. The “direct activity (inhibition of bacteria growth)” value in data set [3] is reported as “no direct activity”.
As for `Cc1c(C(=O)NC(C(=O)OCC#N)C(C)C)sc(Br)c1Br` (stereo not shown) [I.15], the LogP in data set [2] (setting [4]) is 3.69^[a]. Moreover, the “direct activity (inhibition of bacteria growth)” value in data set [3] was “no direct activity”.
For `CCOC(=O)C(C)NC(=O)c1sc(Cl)c(Cl)c1C` (stereo not shown) [I.27], in that order: 3.31^[a] and “no direct activity”.
As for `Cc1c(C(=O)NCC(=O)OC(C)(C)C)sc(Cl)c1Cl` [I.28], the LogP in data set [2] (setting [4]) was 3.77^[a]. For the same compound, in data set [3], the “direct activity (inhibition of bacteria growth)” value is recorded as “no direct activity”.
As for `CCOC(=O)[C@@H](C)NC(=O)c1sc(Cl)c(Cl)c1C` [I.42], the LogP in data set [2] (setting [4]) is 3.31^[a]. In data set [3], the “direct activity (inhibition of bacteria growth)” value is given as “no direct activity”.
For `CCOC(=O)[C@@H](Cc1ccccc1)NC(=O)c1sc(Cl)c(Cl)c1C` [I.45], in that order: 4.46^[a] and “no direct activity”.
On the same counts, the results for `CCOC(=O)C(CCSC)NC(=O)c1sc(Cl)c(Cl)c1C` (stereo not shown) [I.47] are 3.94^[a] and “no direct activity”.
On the same counts, the results for `CCOC(=O)C(CC(C)C)NC(=O)c1sc(Cl)c(Cl)c1C` (stereo not shown) [I.37] are 4.51^[a] and “no direct activity”.
As for `Cc1c(C(=O)NC(C(=O)Oc2ccccc2)C(C)C)sc(Br)c1Br` (stereo not shown) [I.60], the LogP in data set [2] (setting [4]) is 4.85^[a]. The “direct activity (inhibition of bacteria growth)” value in data set [3] is given as “no direct activity”.
Regarding `CCOC(=O)CNC(=O)c1sc(Br)c(Br)c1Br` [CMP4, reference compound], in data set [1], the “Efficacy (%)” value came out at 0%.
With `CCOC(=O)C(C)NC(=O)c1sc(Br)c(Br)c1C` (stereo not shown) [I.21], in data set [2] (setting [4]), the LogP is 3.39^[a]. Besides, the “direct activity (inhibition of bacteria growth)” value in data set [3] was “no direct activity”.
For `Cc1c(C(=O)NCC(=O)OCc2ccccc2)sc(Cl)c1Cl` [I.34], in that order: 3.76^[a] and “no direct activity”.
Turning to `CCOC(=O)C(NC(=O)c1sc(Br)c(Br)c1Br)C(C)C` (stereo not shown) [CMP3, reference compound], the “Efficacy (%)” value in data set [1] is given as 33%.
Take `C=CCOC(=O)C(NC(=O)c1sc(Br)c(Br)c1C)C(C)C` (stereo not shown) [I.58]: the LogP in data set [2] (setting [4]) was 4.46^[a]. For the same compound, the “direct activity (inhibition of bacteria growth)” value in data set [3] is “no direct activity”.
For the compound `COC(=O)[C@H](CCSC)NC(=O)c1sc(Cl)c(Cl)c1C` [I.30], in data set [2] (setting [4]), the LogP was 3.55^[a]. Also, the “direct activity (inhibition of bacteria growth)” value in data set [3] is “no direct activity”.
`CCCOC(=O)CNC(=O)c1sc(Cl)c(Cl)c1C` [I.48]: in data set [2] (setting [4]), the LogP was 3.35^[a]. Besides, in data set [3], the “direct activity (inhibition of bacteria growth)” value is reported as “no direct activity”.
`CCOC(=O)[C@@H](NC(=O)c1sc(Br)c(Br)c1C)C(C)C` (racemic) [I.04, ethyl N-[(4,5-dibromo-3-methyl-2-thienyl)carbonyl]-valinate]: the chromatographic logP in data set [2] (setting [4]) and in data set [2] (setting [5]) was 4.32 throughout. Further, in data set [3], the “direct activity (inhibition of bacteria growth)” value is reported as “no direct activity”. Moreover, the “Efficacy (%)” value in data set [1] was >90%.

The values above are taken from patent US11401254B2, “Substituted thiophenecarboxamides and analogues as antibacterials agents” (Bayer Aktiengesellschaft, priority 2018, dated 2022).
